# Measurements reported in patent US20140179681A1, “METHODS AND COMPOSITIONS OF TARGETED DRUG DEVELOPMENT” (priority 2010, published 2014).
# Where two headings read alike, the source gives them in different places.
# Legend:
# MDBK line = experiment: MTT Cell Proliferation Assay, MDBK cells; format: cell-based, bovine
# Procedure, shortened: (§1)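 Each concentration ran in quadruplicate across duplicate plates, with compounds serially diluted in DMSO and delivered at 0.5% DMSO in 0.5% FBS medium for 3 days.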
# EGFR = target: T1, EGFR (Homo sapiens, UniProt P00533); experiment: EGFR in-cell Western (ICW) screening protocol (EGFR inhibition assay); format: cell-based; conditions: for ICW Screen: Table 11; for ICW Screen / ICW assay: % Inhibition of EGF dependent EGFR phosphorylation in A431 cells, compound 125 μM in assay; for ICW assay: Table 10
# T1 construct: host or cells: A431
# Procedure, shortened: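 In-cell Western read-out: fixed A431 cells were co-stained for total EGFR and phospho-EGFR (Tyr1173; some runs Tyr1045). Before fixation, cells were serum-starved for 2 h, exposed to compound for 4 h, then given EGF for 10 min, usually at 10 ng/ml final (6.6 or 12.5 ng/ml in some runs).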
# [1] = test system: epithelial carcinoma A431 cell line; experiment: MTT Cell Proliferation Assay, A431 cells; format: cell-based
# Procedure, shortened: as §1
# [2] = Bos taurus, MDBK, Table 11, second of x/y(ratio): MDBK, unit not printed (doses in μM), read-out: MTT Screen (second value)
# [3] = Homo sapiens, A-431, Table 11, first of x/y(ratio): A431, unit not printed (doses in μM), read-out: MTT Screen (first value)
# [4] = Homo sapiens, A-431, 72 h, Table 11, first of x/y(ratio): A431, unit not printed (doses in μM), read-out: MTT Screen (first value)
# [5] = Bos taurus, MDBK, Table 11, second of x/y(ratio): MDBK, unit inferred, read-out: MTT Follow-up (second value)
# [6] = Homo sapiens, A-431, Table 11, first of x/y(ratio): A431, unit inferred, read-out: MTT Follow-up (first value)
# [7] = Table 11, second of x/y(ratio): MDBK, unit not printed (doses in μM)
# [8] = second value of 'a/b (c)', taken as MDBK cells, read-out: MTT Screen, second value of cell
# [9] = first value of 'a/b (c)', taken as A431 cells, read-out: MTT Screen, first value of cell
# [10] = Table 11, second of x/y(ratio): MDBK, unit not printed (doses in μM), read-out: MTT Screen (second value)
# [11] = Table 11, first of x/y(ratio): A431, unit not printed (doses in μM), read-out: MTT Screen (first value)
# [12] = Bos taurus, MDBK, second value of 'a/b (c)', taken as MDBK cells, read-out: MTT Screen, second value of cell
# [13] = Homo sapiens, A-431, first value of 'a/b (c)', taken as A431 cells, read-out: MTT Screen, first value of cell
# [14] = Bos taurus, MDBK, 72 h, Table 10, second of x/y(ratio): MDBK, three day treatment, unit not printed (doses in μM), read-out: MTT assay (second value)
# [15] = Homo sapiens, A-431, 72 h, Table 10, first of x/y(ratio): A431, three day treatment, unit not printed (doses in μM), read-out: MTT assay (first value)
# T1 sequence (P00533 25-1210): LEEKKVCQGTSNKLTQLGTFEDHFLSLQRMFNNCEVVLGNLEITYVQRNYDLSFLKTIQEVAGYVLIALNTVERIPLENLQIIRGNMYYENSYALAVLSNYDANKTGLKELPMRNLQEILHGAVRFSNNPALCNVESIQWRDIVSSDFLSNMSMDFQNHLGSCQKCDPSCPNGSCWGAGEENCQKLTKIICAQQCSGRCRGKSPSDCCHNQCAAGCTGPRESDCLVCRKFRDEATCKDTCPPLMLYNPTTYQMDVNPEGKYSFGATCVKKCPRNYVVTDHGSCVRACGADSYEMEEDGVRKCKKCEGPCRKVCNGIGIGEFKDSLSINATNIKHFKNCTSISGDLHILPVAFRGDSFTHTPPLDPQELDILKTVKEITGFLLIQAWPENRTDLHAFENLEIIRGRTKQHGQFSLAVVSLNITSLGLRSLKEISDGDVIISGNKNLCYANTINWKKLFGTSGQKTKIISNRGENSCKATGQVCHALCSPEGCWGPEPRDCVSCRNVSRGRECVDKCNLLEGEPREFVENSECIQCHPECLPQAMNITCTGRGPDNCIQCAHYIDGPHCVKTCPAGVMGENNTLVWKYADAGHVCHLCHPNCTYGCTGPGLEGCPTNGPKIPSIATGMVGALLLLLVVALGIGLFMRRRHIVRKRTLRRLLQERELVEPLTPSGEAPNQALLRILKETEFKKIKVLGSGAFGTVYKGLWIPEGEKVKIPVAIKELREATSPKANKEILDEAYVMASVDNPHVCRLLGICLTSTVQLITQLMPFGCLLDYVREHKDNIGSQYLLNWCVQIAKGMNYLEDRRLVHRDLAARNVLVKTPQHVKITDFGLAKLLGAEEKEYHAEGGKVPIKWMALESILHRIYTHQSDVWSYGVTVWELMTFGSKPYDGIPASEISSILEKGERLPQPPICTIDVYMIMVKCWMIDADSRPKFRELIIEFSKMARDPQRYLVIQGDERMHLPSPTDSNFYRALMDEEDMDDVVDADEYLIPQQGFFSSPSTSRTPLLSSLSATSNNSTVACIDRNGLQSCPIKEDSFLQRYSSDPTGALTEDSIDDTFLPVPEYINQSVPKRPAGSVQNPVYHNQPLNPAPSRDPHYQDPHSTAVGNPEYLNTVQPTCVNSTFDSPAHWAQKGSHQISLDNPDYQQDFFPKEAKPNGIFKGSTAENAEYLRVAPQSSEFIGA
ICW Screen (ICW Inhibition) (EGFR),"IC50 [1, 13]",SMILES,IC50 (MDBK line; [12]),further results
,,CC(C)c1ccc2oc(=O)cc(CN3CCN(C/C=C/c4ccccc4)CC3)c2c1 [AD4-10188],,"IC50 (MDBK line; [2]): 16.3 µM; ICW Screen (EGFR): 53.35; IC50 [1, 3]: 9.05 µM"
,,CC(C)c1ccc2oc(=O)cc(CN3CCN(Cc4ccc5c(c4)OCO5)CC3)c2c1 [AD4-10192],,"IC50 (MDBK line; [2]): 43.3 µM; ICW Screen (EGFR): 16.772; IC50 [1, 4]: 16.5 µM"
,,COc1ccc(N2CCN(Cc3cc(=O)oc4cc5c(cc34)OCO5)CC2)cc1 [AD4-10209],,"IC50 (MDBK line; [5]): 50.1 µM; ICW Screen (EGFR): −10.6; IC50 [1, 6]: 2.5 µM"
,,COc1ccc(N2CCN(Cc3cc(=O)oc4c(C)c(O)ccc34)CC2)cc1 [AD4-10217],,"MTT Screen (second value) (MDBK line; [7]): non-convergent; ICW Screen (EGFR): −1.007; IC50 [1, 4]: 14 µM"
30.774,,CC(C)(C)C(=O)NC(=S)Nc1ccc(S(=O)(=O)NCCc2ccccc2)cc1 [AD4-10313],,"IC50 (MDBK line; [8]): 17.6 µM; IC50 [1, 9]: 20.9 µM"
,,Cc1c(O)ccc2c(CN3CCN(Cc4ccc5c(c4)OCO5)CC3)cc(=O)oc12 [AD4-10491],,"IC50 (MDBK line; [10]): 40.6 µM; ICW Screen (EGFR): 29.223; IC50 [1, 11]: 22.2 µM"
62.846,6.33 µM,CC(C)CC(=O)NC(=S)Nc1ccc(S(=O)(=O)NCCc2ccccc2)cc1 [AD4-10608],5.35 µM,
43.828,6.84 µM,O=C(NC(=S)Nc1ccc(S(=O)(=O)NCCc2ccccc2)cc1)C1CCCC1 [AD4-10609],6.34 µM,
38.285,30.9 µM,CC(C)C(=O)NC(=S)Nc1ccc(S(=O)(=O)NCCc2ccccc2)cc1 [AD4-10611],20 µM,
30.841,11.7 µM,CCCC(=O)NC(=S)Nc1ccc(S(=O)(=O)NCCc2ccccc2)cc1 [AD4-10612],13.2 µM,
35.514,13.9 µM,CC(C)(C)C(=O)NC(=S)Nc1ccc(S(=O)(=O)NCCc2ccccc2)cc1 [AD4-10613],11.8 µM,
,,O=c1cc(CN2CCN(Cc3ccc4c(c3)OCO4)CC2)c2cc(Cl)c(O)cc2o1 [AD4-10618],,"MTT Screen (second value) (MDBK line; [7]): non-convergent; ICW Screen (EGFR): −3.062; IC50 [1, 4]: 18.4 µM"
,,CCc1cc2c(CN3CCN(C(c4ccccc4)c4ccccc4)CC3)cc(=O)oc2cc1O [AD4-10619],,"IC50 (MDBK line; [5]): 3.06 µM; ICW Screen (EGFR): −44.55; IC50 [1, 6]: 2.97 µM; MTT Screen, % @ […] ([1]; Table 11, @ […], cell line not stated): 87% @ 2.6 μM"
46.185,25.8 µM,CC(=O)NC(=S)Nc1ccc(S(=O)(=O)N2CCc3ccccc32)cc1 [AD4-10623],38.3 µM,
49.448,25.6 µM,O=C(CCc1ccco1)NC(=S)Nc1ccc(S(=O)(=O)NCCc2ccccc2)cc1 [AD4-10624],16.8 µM,
50.05,5.31 µM,CC(C)CC(=O)NC(=S)Nc1ccc(S(=O)(=O)N2CCc3ccccc32)cc1 [AD4-10626],19.6 µM,
,,CCc1cc2c(CN3CCN(Cc4ccccc4)CC3)cc(=O)oc2cc1O [AD4-10631],,"IC50 (MDBK line; [10]): 37.5 µM; ICW Screen (EGFR): 104.48; IC50 [1, 11]: 35.6 µM"
,,O=c1cc(CN2CCN(C(c3ccccc3)c3ccccc3)CC2)c2ccc(O)c(O)c2o1 [AD4-10633],,"MTT Screen (second value) (MDBK line; [7]): non- convergent; ICW Screen (EGFR): 46.398; IC50 [1, 3]: 5.2 µM; MTT Follow-up (first value) ([1]; Table 11, first of x/y(ratio): A431, unit not given): Not Convergent"
,,Cc1c(O)ccc2c(CN3CCN(Cc4ccc5c(c4)OCO5)CC3)cc(=O)oc12 [AD4-10637],,"IC50 (MDBK line; [2]): 41.3 µM; ICW Screen (EGFR): 30.057; IC50 [1, 3]: 20.8 µM"
,,O=c1cc(CN2CCN(Cc3ccccc3)CC2)c2cc3c(cc2o1)OCO3 [AD4-10639],,"MTT Screen (second value) (MDBK line; [7]): non-convergent; ICW Screen (EGFR): 43.695; IC50 [1, 4]: 42.6 µM"
59.637,,Cc1ccc(NS(=O)(=O)c2ccc(NC(=S)NC(=O)C3CCC3)cc2)cc1C [AD4-10676],8.84 µM,"IC50 [1, 9]: 18.6 µM"
,,CC(=O)c1cccc(NC(=S)Nc2ccc(NS(=O)(=O)c3ccc(C)cc3)cc2)c1 [AD4-10693],,"IC50 (MDBK line; [14]): 35.9 µM; ICW assay (EGFR): 26.8206; IC50 [1, 15]: 48.2 µM"

ICW Screen (ICW Inhibition) (EGFR),"IC50 [1, 13]",SMILES,IC50 (MDBK line; [12]),further results
,,CC(=O)c1ccc(NC(=S)Nc2ccc(S(=O)(=O)Nc3ccccc3C)cc2)cc1 [AD4-10700],,"IC50 (MDBK line; [14]): 14.3 µM; ICW assay (EGFR): 52.5996; IC50 [1, 15]: 14.7 µM"
47.764,23.1 µM,O=C(NC(=S)Nc1ccc(S(=O)(=O)Nc2ccccc2)cc1)c1ccco1 [AD4-10705],25.2 µM,
55.497,15.1 µM,Cc1ccccc1C(=O)NC(=S)Nc1ccc(S(=O)(=O)Nc2ccccc2)cc1 [AD4-10706],23.1 µM,
37.233,16.6 µM,Cc1ccc(NS(=O)(=O)c2ccc(NC(=S)NC(=O)C3CCCCC3)cc2)cc1C [AD4-10708],35.9 µM,
,,CCOc1ccc(NS(=O)(=O)c2ccc(NC(=S)Nc3ccccc3)cc2)cc1 [AD4-11344],,"IC50 (MDBK line; [14]): 15.3 µM; ICW assay (EGFR): 34.1727; IC50 [1, 15]: 15.1 µM"
46.872,43.3 µM,CCc1nnc(NS(=O)(=O)c2ccc(NC(=S)NC(=O)/C=C/c3ccccc3)cc2)s1 [AD4-11367],43.6 µM,
43.546,48.6 µM,COc1cc(NS(=O)(=O)c2ccc(NC(=S)NC(=O)/C=C/c3ccccc3)cc2)nc(OC)n1 [AD4-11369],,IC50 (MDBK line; [8]): 47.2 µM
30.745,,COc1ccc(OCC(=O)NC(=S)Nc2ccc(S(=O)(=O)Nc3cc(C)cc(C)c3)cc2)cc1 [AD4-11396],,"IC50 (MDBK line; [8]): 21.2 µM; IC50 [1, 9]: 25.1 µM"
33.635,11.8 µM,Cc1cc(Cl)ccc1OCC(=O)NC(=S)Nc1ccc(S(=O)(=O)N2CCCCC2)cc1 [AD4-11402],17.4 µM,
74.94,17.2 µM,CCOc1ccc(NS(=O)(=O)c2ccc(NC(=S)NC(=O)CC)cc2)cc1 [AD4-11409],11.7 µM,
31.958,11.4 µM,CCN(c1ccccc1)S(=O)(=O)c1ccc(NC(=S)NC(=O)Cc2ccccc2)cc1 [AD4-11412],20 µM,
46.23,,O=C(NC(=S)Nc1ccc(S(=O)(=O)Nc2ccccc2)cc1)C1CC1 [AD4-11413],,"IC50 (MDBK line; [8]): 29.8 µM; IC50 [1, 9]: 31.4 µM"
35.841,15.7 µM,COc1ccc(CC(=O)NC(=S)Nc2ccc(S(=O)(=O)NCCc3ccccc3)cc2)cc1 [AD4-11415],10.5 µM,
53.517,,O=C(Cc1ccccc1)NC(=S)Nc1ccc(S(=O)(=O)Nc2ccccc2)cc1 [AD4-11416],,"IC50 (MDBK line; [8]): 13.5 µM; IC50 [1, 9]: 15.4 µM"
40.711,,Cc1ccc(NS(=O)(=O)c2ccc(NC(=S)NC(=O)C3CCCCC3)cc2)cc1C [AD4-11417],,"IC50 (MDBK line; [8]): 49.3 µM; IC50 [1, 9]: 25.5 µM"
34.067,11.9 µM,COc1ccc(CC(=O)NC(=S)Nc2ccc(S(=O)(=O)Nc3ccc(C)c(C)c3)cc2)cc1 [AD4-11418],10.2 µM,
40.289,31.3 µM,Cc1ccc(NS(=O)(=O)c2ccc(NC(=S)NC(=O)CCc3ccccc3)cc2)cc1C [AD4-11419],38.8 µM,
37.181,41.5 µM,O=C(NC(=S)Nc1ccc(S(=O)(=O)N2CCCCC2)cc1)C1CCC1 [AD4-11421],43.5 µM,
44.982,,Cc1ccc(NS(=O)(=O)c2ccc(NC(=S)NC(=O)C3CCC3)cc2)cc1C [AD4-11422],,"IC50 (MDBK line; [8]): 9.23 µM; IC50 [1, 9]: 29.5 µM"
,,Cc1cc(C)c(NS(=O)(=O)c2ccc(NC(=S)Nc3ccc(S(C)(=O)=O)cc3)cc2)c(C)c1 [AD4-11427],,"IC50 (MDBK line; [14]): 14.5 µM; ICW assay (EGFR): 44.904; IC50 [1, 15]: 12 µM"
,,COc1ccc(NC(=S)Nc2ccc(S(=O)(=O)Nc3c(C)cc(C)cc3C)cc2)cc1OC [AD4-11428],,"IC50 (MDBK line; [14]): 15.5 µM; ICW assay (EGFR): 29.8673; IC50 [1, 15]: 20.8 µM"
,,CCN(c1ccccc1)S(=O)(=O)c1ccc(NC(=S)Nc2ccccc2)cc1 [AD4-11430],,"IC50 (MDBK line; Table 10, second of x/y(ratio): MDBK, three day treatment, unit not printed (doses in μM), read-out: MTT assay (second value)): 16.8 µM; ICW assay (EGFR): 27.1482; IC50 [1, 15]: 19.8 µM"
